Results as given in US6399568B1, “Cyclic tetrapeptide derivatives and medicinal use thereof” (Japan Energy Corporation, priority 1997, dated 2002).
Non-standard residues stand in square brackets, D forms with d. Residues, ends and D or L forms follow the SMILES beside them. *: point of attachment. Asu = N[C@@H](CCCCCC(=O)O)C(=O)O; Aib = CC(C)(N)C(=O)O; NHOH = ON*

Experiments:
[1] = tested on: B16/BL6 cells; assay: MHC class-I molecule expression promoting activity; assay type: cell-based, mouse; details: for MHC class-I molecule expression promoting action: FIGS. 3 and 4, dependence on concentration of addition; for Twice Promoting Concentration Cx2: concentration at which MHC class-I expression is twice that without addition; for Twice Promoting Concentration Cx2 / conc. for 2-fold expression (nM) mean: 72 hours; for conc. for 2-fold expression (nM) mean: mean of a plurality of assays
Protocol: The cancer cells used were mouse melanoma cells, B16/BL6 cells, provided by, the National Cancer Institute, U.S.A. Said cells were cultivated in MEM media supplemented with 10% FBS at 37° C. in the presence of 5% carbon dioxide in an humidified incubator.
A compound to be tested was preliminarily dissolved in dimethyl sulfoxide (DMSO) and adjusted to a concentration of 100 mM or 10 mM (source solution).
Said B16/BL6 cells were inoculated on 96 well microplate at a cell density of 5000 cells per well, each well containing 200 μl of said medium. […] Thereafter, each well was once washed with PBS (phosphate buffered saline) and floating cells and the medium were removed. Then, the well was treated with 0.1% glutaraldehyde solution for 3 minutes to fix the cells.
The amount of MHC class-I molecule expressed on the surface of the fixed cells was measured by the following method. Anti-H-2K^bD^bD^d antibody, which is an antibody against mouse MHC classI molecule (commercially available from Meiji Milk Co., Ltd), was used as a primary antibody, biotinylated anti-mouse IgG+M (commercially available from Chemicon) was used as a secondary antibody, and streptavidin-β-galactosidase conjugate (commercially available from BRL) was reacted as a labelling enzyme. The amount of the thus labelled enzyme β-galactosidase was measured in a microplate reader by recording the fluorescent intensity (excitation: 365 nm, fluorescence: 450 nm) derived from the enzymaticreaction product using 4-methylumbelliferyl-β-D-galactoside (commercially available from Nacalai Tesque) as a substrate. […] The value obtained by subtracting said background level from the, actually measured value (an apparent value including the background level) was the true measurement reflecting the amount of expressed MHC class-I molecule.
A group without the addition of any compound to be tested was used as a reference group and the measurement of MHC class-I molecule expressed in said group was used as a standard value. The amount of MHC class-I molecule expressed at a concentration of addition of each test compound is shown as a relative amount, said standard value taken as one (1). For each compound to be tested, various concentrations of addition were selected to investigate the dependency of MHC class-I molecule expression promoting action on the concentration of addition.

[2] = tested on: B16/BL6 cells; assay: Inhibitory effect on histone deacetylation in cells (AUT gel electrophoresis); assay type: cell-based, mouse; details: Example 1 added at 10 μM, trichostatin A at 1 μM; 6 hours; histone H4 bands
Protocol: In a culture flask of 75 ml in capacity, 1.5×10^5 B16/BL6 cells were inoculated and preliminarily cultured for 4 days. Then, a given amount of a compound to be tested was added and subsequently cultured for 6 hours. Thereafter, cells were striped using 0.25% trypsin enzyme solution, washed once with PBS and stored temporarily at −80° C.
From this cell sample, histone was separated from chromatin and collected together with other proteins in a conventional manner. The resulting protein sample was subjected to AUTgel electrophoresis in an amount of 1 μg/lane. Said gel was stained with silver to detect bands separated by the migration.
The result on a control group in which no compound to be tested was added is also shown.

[3] = tested on: B16/BL6 cells; assay: Inhibitory effect on cell proliferation (MTS, 48 hours); assay type: cell-based, mouse; details: 48 hours after addition; read-out: 50% inhibiting concentration
From the text: (§1) In order to verify the action of the cyclic tetrapeptide derivative according to the present invention in inhibiting cell proliferation in cancerized cells, the action on the proliferation of the aforementioned B16/BL6 cells was investigated. The evaluation of cell proliferation rates was done utilizing a commercially available measuring kit, specifically, from Promega under the trade name CellTiter 96 Aqueous Non-Radioactive Proliferation Assay Kit. In the measuring kit, the amount of products through reduction of a reagent tetrazolium compound (3-(4,5-dimethylthiazol-2-yl)-5-(3-carboxymethoxyphenyl)-2-(4-sulfophenyl)-2H-tetrazolium, inner salt; MTS) by viable animal cells is determined by detecting spectrophotometrically the color generated from the products. Since the amount of products is proportional to the amount of viable cells, this kit is utilized to evaluate the amount of viable cells.
(§2) According to the procedure of Test Example 1, B16/BL6 cells are inoculated in a 96 well microplate and cultured for 24 hours. Then, 10 μl of a solution of the source solution of a compound to be tested which has been diluted to a predetermined amount per well is added. Thereafter, culture is continued for additional 48 hours and 20 μl of a reagent solution in the aforementioned CellTiter 96 Aqueous Non-Radioactive Proliferation Assay Kit is then added. After incubation is continued at 37° C. for 1 hour, the amount of color generation is measured as an absorbance at 490 n musing a microplate reader.
(§3) The amount of cell proliferation of a group to which a compound to be tested is added is expressed in a relative value as compared to the standard cell proliferation (100%) in a control group to which no compound to be tested is added. For each compound tested, the amounts of cell proliferation were measured at different concentrations of addition and the dependence of the quantitative cell proliferation on the concentration of addition was investigated. From the results, a concentration of addition at which the amount of cell proliferation was inhibited by 50% relative to the amount of cell proliferation in the control group without addition was determined.

[4] = tested on: colon cancer Colon26 cell line; assay: Cell proliferation inhibition (72 hours); assay type: cell-based, mouse; details: read-out: 50% proliferation inhibiting concentration Colon 26 (nM) mean
From the text: as §1, §2, §3
(§4) The test method was in accordance with the above-mentioned procedure, except that the period of incubation after the addition of a compound was 72 hours.
(§5) As illustrative examples, results are shown for an evaluation using mouse malignant melanoma B16/BL6 and B16 cell lines; leukemia L1210 cell line, colon cancer Colon26 cell line, and liver cancer MH134 cell line as cancer cells. For the cell proliferation inhibiting action of each compound tested for these cancer cells, 50% proliferation inhibiting concentrations are shown in Table 4.

[5] = tested on: leukemia L1210 cell line; assay: Cell proliferation inhibition (72 hours); assay type: cell-based, mouse; details: read-out: 50% proliferation inhibiting concentration L1210 (nM) mean
From the text: as §1, §2, §3, §4, §5

[6] = tested on: liver cancer MH134 cell line; assay: Cell proliferation inhibition (72 hours); assay type: cell-based, mouse; details: read-out: 50% proliferation inhibiting concentration MH134 (nM) mean
From the text: as §1, §2, §3, §4, §5

[7] = tested on: mouse malignant melanoma B16/BL6 cell line; assay type: cell-based; details: 72 hours; read-out: 50% proliferation inhibiting concentration B16/BL6 (nM) mean
From the text: as §1
as §2, with “Then, 10 μl of a solution of the source solution of a compound to be tested which has been diluted to a predetermined amount per well is added.” left out
as §3, with “investigated.” for “investigated. From the results, a concentration of addition at which the amount of cell proliferation was inhibited by 50% relative to the amount of cell proliferation in the control group without addition was determined.”
as §4

[8] = tested on: mouse malignant melanoma B16 cell line; assay: Cell proliferation inhibition (72 hours); assay type: cell-based; details: read-out: 50% proliferation inhibiting concentration B16 (nM) mean
From the text: as §1, §2, §3, §4, §5

[9] = target: Mouse histone deacetylase; assay type: biochemical
Protocol: In an enzyme system using a radio-labelled acetylated histone as a substrate, histone deacetylase enzyme inhibiting activity was evaluated. The basic conditions were in accordance with the method of Yoshida et al. (J. Biol. Chem., 265, 17174-17179, 1990).
Mouse histone deacetylase to be used was partially purified from FM3A cells. Cells were suspended in HDA buffer (15 mM potassium phosphate, 5% glycerol, 0.2 mM EDTA, pH 7.5), homogenized and centrifuged (35000×g, 10 min) to collect the nuclei which in turn were homogenized in the same buffer containing 1 M (NH4)2SO4. After ultrasonic disruption and centrifugation, the concentration of (NH4)2SO4 in the supernatant was increased to 3.5 M to precipitate deacetylase enzyme proteins. This precipitate was redissolved in HDA buffer, dialyzed against HDA buffer, applied to DEAE-cellulose column and eluted in NaCl gradient. Active fractions were used as a histone deacetylase enzyme solution.
As a substrate, [^3H]acetyl histone was used. In a culture solution of FM3A cells in the presence of 5 mM sodium n-butyrate, [^3H]acetate was added, followed by incubation for 30 minutes to radio-label the histone. The histone was prepared in a conventional manner and used as a substrate solution.
An assay was performed by adding a compound to be tested at a given concentration while using a no-addition control group, and by incubating the substrate solution and the enzyme solution at 37° C. for 10 minutes (reaction volume, 100 μl). The enzyme reaction was stopped by adding 10 μl of concentrated hydrochloric acid and the excised [^3H]acetate was extracted with ethyl acetate for radioactivity measurement. The inhibiting activity was expressed by a concentration at which the enzyme activity in the control group was inhibited by 50% (50% inhibiting concentration).

[10] = target: histone deacetylase; assay: Histone deacetylase enzyme inhibiting activity, synthetic peptide substrate; assay type: biochemical, mouse; details: enzyme from B16/BL6 cells; [3H]acetylated histone H4 peptide; 37° C. 3 hours
Protocol: The preparation of histone deacetylase was performed essentially according to the method of Yoshida et al. (J. Biol. Chem., 265,17174-17179, 1990). The enzyme to be used was partially purified from B16/BL6 cells. The cells were suspended in HDA buffer (15 mM potassium phosphate, 5% glycerol, 0.2 mM EDTA, […], pH 7.5), homogenized and centrifuged (2500×g, 10 min) to collect the nuclei, which in turn were homogenized in the same buffer containing 1 M (NH4)2SO4. After ultrasonic disruption and centrifugation, the concentration of (NH4)2SO4 in the collected supernatant was increased to 3.5 M to precipitate histone deacetylase. This precipitate was redissolved in HDA buffer, subjected to gel filtration to replace the solvent with HDA buffer, and used as a crude histone deacetylase enzyme solution.
As a substrate, a synthetic substrate peptide, [^3H]acetylated histone H4 peptide was used. This [^3H]acetylated histone H4 peptide was obtained by synthesizing the N-terminal peptide of histone H4; […] (the C-terminal being cysteine) and radio-acetylating with ^3H -acetic anhydride.
An assay was performed by incubating the synthetic substrate solution and the enzyme solution at 37° C. for 3 hours in the presence of a compound to be tested (reaction volume, 100 μl). The reaction was stopped by adding 25 μl of 1 M HCl and 0.2 M acetic acid and [^3H]acetate excised by the enzyme reaction was extracted with ethyl acetate for radioactivity measurement. As a control group, the same procedure was repeated without addition of any test compound to the reaction system. The inhibiting activity was expressed by a concentration at which the histone deacetylase enzyme activity in the control group was inhibited by 50% (50% inhibiting concentration).

O=C(CCCCC[C@@H]1NC(=O)[C@H]2CCCN2C(=O)[C@H](Cc2ccccc2)NC(=O)[C@H](Cc2ccccc2)NC1=O)NO [HDA-5, cyclo(-Asu(NHOH)-Phe-Phe-D-Pro-)] (cyclo([Asu](NHOH)FF[dP]))
MHC class-I molecule expression promoting action [1]: exhibited MHC class-I molecule expression promoting action
Twice Promoting Concentration Cx2 [1]: 135 nM
conc. for 2-fold expression (nM) mean [1]: 98.2 nM
inhibitory effect on histone deacetylation [2]: inhibits the deacetylation of histone
IC50 [3]: 210 nM
IC50 [4]: 2160 nM
IC50 [5]: 500 nM
IC50 [6]: 1660 nM
IC50 [7]: 257 nM
IC50 [8]: 3370 nM
IC50 [9]: 2.18 nM
IC50 [10]: 6.03 nM

CC1(C)NC(=O)[C@H](CCCCCC(=O)NO)NC(=O)[C@H]2CCCN2C(=O)[C@H](Cc2ccccc2)NC1=O [HDA-15, cyclo(-Asu(NHOH)-Aib-Phe-D-Pro-)] (cyclo([Aib]F[dP][Asu](NHOH)))
MHC class-I molecule expression promoting action [1]: exhibited MHC class-I molecule expression promoting action
Twice Promoting Concentration Cx2 [1]: 36.2 nM
conc. for 2-fold expression (nM) mean [1]: 33.2 nM
IC50 [3]: 92.5 nM
IC50 [4]: 908 nM
IC50 [5]: 193 nM
IC50 [6]: 946 nM
IC50 [7]: 110 nM
IC50 [8]: 1230 nM

CC(/C=C/C(=O)NO)=C\[C@@H](C)C(=O)c1ccc(N(C)C)cc1 [Trichostatin A, trichostatin A, reference compound]
MHC class-I molecule expression promoting action [1]: MHC class-I molecule expression promoting action was confirmed
MHC class-I molecule expression promoting activity ([1]; allowed to act on animal cells (summary statement)): promotes the expression of MHC class-I molecule
Twice Promoting Concentration Cx2 [1]: 3.35 nM
inhibitory effect on histone deacetylation [2]: a total of 5 discrete bands are clearly seen in this region
IC50 [3]: 14.3 nM
IC50 [4]: 139 nM
IC50 [5]: 12.4 nM
IC50 [6]: 41.7 nM
IC50 [7]: 19.1 nM
IC50 [8]: 621 nM
IC50 [10]: 2.55 nM
